Measured values published in PubChem BioAssay (NCI).
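Each compound was tested at five concentrations against cells in 96-well plates for 48 hours. GI50: concentration for 50% inhibition of growth. The concentration for full growth arrest is given as TGI.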 Where a SMILES comes first, the peptide text is derived from it. [ ]: non-standard residue; d: D form. The star is where a group is joined. Phe(4-NO2) = N[CH](Cc1ccc([N+](=O)[O-])cc1)C(=O)O; Boc = CC(C)(C)OC(=O)*; OBn = c1ccc(CO*)cc1

Columns and labels:
Experiment in all cases: NCI-60 cell line screen, 48 h
SK-MEL-2 melanoma = system: SK-MEL-2 melanoma
LOX IMVI melanoma = system: LOX IMVI melanoma
UACC-62 melanoma = system: UACC-62 melanoma
OVCAR-5 ovarian = system: OVCAR-5 ovarian
HL-60(TB) leukemia = system: HL-60(TB) leukemia
UO-31 renal = system: UO-31 renal
HCC-2998 colon = system: HCC-2998 colon
MDA-MB-231 breast = system: MDA-MB-231 breast

Row | Compound | TGI (SK-MEL-2 melanoma) | TGI (LOX IMVI melanoma) | TGI (UACC-62 melanoma) | TGI (OVCAR-5 ovarian) | TGI (HL-60(TB) leukemia) | TGI (UO-31 renal) | TGI (HCC-2998 colon) | TGI (MDA-MB-231 breast) | GI50 (SK-MEL-2 melanoma) | GI50 (LOX IMVI melanoma) | GI50 (MDA-MB-231 breast)
1 | Oc1ccc(Cl)cc1C1=N/C(=N\CN2CCN(C/N=C3/N=C(c4cc(Cl)ccc4O)CC(c4ccccc4)N3)CC2)NC(c2ccccc2)C1 (stereo not given) | > 100 µM | > 100 µM | > 100 µM | > 100 µM | > 100 µM | > 100 µM | > 100 µM | > 100 µM | – | – | –
2 | CN1CC2=C(OC(N)=C(C#N)C2c2cccs2)/C(=C/c2cccs2)C1 (stereo not given) | > 64.4 µM | > 63.3 µM | > 100 µM | > 100 µM | 12 µM | > 84.8 µM | > 100 µM | > 100 µM | – | – | –
3 | COC(=O)CCC(NC(=O)OC(C)(C)C)C(=O)NC(Cc1ccc([N+](=O)[O-])cc1)C(=O)NCC(=O)OCc1ccccc1 (stereo not given) (Boc-Glu(OMe)-[Phe(4-NO2)]-Gly-OBn; configuration not given here) | > 100 µM | > 86.3 µM | > 31.6 µM | > 100 µM | > 100 µM | > 100 µM | > 100 µM | > 91.6 µM | – | – | –
4 | CCN1CC(C)Cn2c(=O)[nH]c3cc(Br)cc1c32 (stereo not given) | > 100 µM | > 100 µM | > 100 µM | > 100 µM | 37.5 µM | > 100 µM | > 100 µM | > 100 µM | – | – | –
5 | N=C(N)SCCON1C(=O)c2ccccc2C1=O | > 100 µM | > 100 µM | > 100 µM | > 100 µM | > 100 µM | > 100 µM | – | > 100 µM | – | – | –
6 | CC(=O)O/C=C\OC1CCCC1(c1ccccc1)c1ccccc1 (stereo not given) | 12.5 µM | 3.14 µM | 17.5 µM | 15.3 µM | 2.89 µM | 3.61 µM | 24.3 µM | 5.51 µM | – | – | –
7 | O=C(Nc1ccccc1)O/N=C(/CBr)c1ccccc1 | 30.9 µM | 16.3 µM | 26.7 µM | 36.1 µM | 32.5 µM | 32.4 µM | 36.6 µM | 29.3 µM | – | – | –
8 | c1ccc(CNc2c3c(nc4ccccc24)CCC3)cc1 | 27.2 µM | 28.4 µM | 28 µM | 51.4 µM | 0.146 µM | 25 µM | 26.5 µM | 27.1 µM | – | – | –
9 | Cc1ccc(S(=O)(=O)N/C(=C\C=C\c2ccccc2)C(=O)C(C)(C)C)cc1 | > 100 µM | > 100 µM | – | > 100 µM | > 100 µM | > 100 µM | > 100 µM | > 100 µM | – | – | –
10 | O=C(NCCN(CCNC(=O)c1cccc(=O)n1O)CCN(CCNC(=O)c1cccc(=O)n1O)CCNC(=O)c1cccc(=O)n1O)c1cccc(=O)n1O | > 100 µM | > 100 µM | > 100 µM | > 100 µM | > 100 µM | > 100 µM | > 100 µM | > 100 µM | – | – | –
11 | CC(C)(C)OC(=O)n1cc(C2CNC(=O)C23CCC(=O)N3Cc2ccccc2)c2ccccc21 (stereo not given) | 33.4 µM | 44 µM | 38.7 µM | 40.8 µM | 82.5 µM | 49 µM | – | 39.9 µM | – | – | –
12 | CSc1c(C(=O)Nc2ccccc2)c(N)nn1-c1ccccc1 | > 100 µM | > 100 µM | > 100 µM | > 100 µM | > 100 µM | > 100 µM | > 100 µM | > 100 µM | – | – | –
13 | COC(=O)c1cc(C)ccc1CC(Cc1cccc(C)c1)C(=O)OC (stereo not given) | > 100 µM | > 100 µM | – | > 100 µM | > 100 µM | > 100 µM | > 100 µM | > 100 µM | – | – | –
14 | CC(C)Oc1c(-c2c(OC(C)C)c(=O)c2=O)c(=O)c1=O | > 89.1 µM | > 47.1 µM | > 61.5 µM | > 100 µM | > 100 µM | > 100 µM | > 100 µM | > 57.2 µM | – | – | –
15 | Cn1ccnc1S/C(=C\C=C(C#N)C#N)c1ccc(Cl)cc1 | > 45.5 µM | 0.443 µM | 9.36 µM | 7.81 µM | 3.42 µM | 9.34 µM | 9.54 µM | 15 µM | 5.38 µM | 0.0671 µM | 4.15 µM
16 | CC(=O)NNc1nc(C)c(C(/C=C/c2ccc3c(c2)OCO3)=N/Nc2ccccc2)s1 | > 100 µM | > 100 µM | > 100 µM | > 100 µM | > 100 µM | > 100 µM | > 100 µM | > 100 µM | – | – | –
17 | COc1cc2c(cc1C[N+](C)(C)CSc1ccccc1)-c1ccccc1CC2 | 5.21 µM | 14.6 µM | 7.79 µM | 24.3 µM | 2.46 µM | 28.6 µM | 13.6 µM | 10 µM | – | – | –
18 | Cc1ccc(C(=O)OC[C@H]2CC[C@@H](n3cc(N(C)C4CCCCC4)c(=O)[nH]c3=O)O2)cc1 | > 100 µM | 38.2 µM | 96.2 µM | 81 µM | > 100 µM | 62.7 µM | > 100 µM | 41.3 µM | – | – | –
19 | CCC1C(=O)C[C@H]2[C@@H]3C(O)CC4=CC(=O)CC[C@]4(C)[C@H]3CC[C@]12C (stereo not given in full) | > 50 µM | > 50 µM | > 50 µM | > 50 µM | > 50 µM | > 50 µM | > 50 µM | > 50 µM | – | – | –
20 | Cc1c(-c2c(C)c3ccccc3n2S(=O)(=O)c2ccccc2)n(S(=O)(=O)c2ccccc2)c2ccccc12 | > 100 µM | > 100 µM | > 100 µM | > 100 µM | > 100 µM | > 100 µM | > 69 µM | > 100 µM | – | – | –
21 | CCC(C)[C@H](NC(=O)N[C@H](C)c1ccccc1)C(=O)OC (stereo not given in full) | > 100 µM | > 100 µM | > 100 µM | > 100 µM | > 100 µM | > 100 µM | > 100 µM | > 100 µM | – | – | –
22 | Cn1ccnc1Sc1ccc(/C=N/NC(=O)c2ccccc2O)cc1[N+](=O)[O-] | > 100 µM | > 100 µM | > 100 µM | > 100 µM | > 100 µM | > 100 µM | > 100 µM | > 100 µM | – | – | –
23 | Cc1cc2c(cc1Cl)Sc1nnc(Nc3ccccc3)n1S2(=O)=O | 21.2 µM | 18.7 µM | – | > 100 µM | 16.4 µM | 41.8 µM | 14.2 µM | 49.9 µM | – | – | –
24 | CCC(CCCN)Nc1cc(OC)cc2cccnc12 (stereo not given) | > 100 µM | > 100 µM | > 100 µM | > 100 µM | 51.1 µM | > 100 µM | 52.7 µM | > 100 µM | – | – | –
